From publication PMC10535741, “Styrylpyridinium Derivatives for Fluorescent Cell Imaging” (Pharmaceuticals, 2023)

System: BHK-21 cells
Type: cell-based, Syrian hamster
Conditions: BHK-21, 24 h after staining
Method: SP compound 6e was selected for fluorescent cell imaging analysis. First, the compound was used to label the BHK-21 cells that are widely used in molecular biology studies. Commercially available CellTracker™ Deep Red dye (Invitrogen) was used as a control because it has a similar emission range (ex/em: 630/660). The BHK-21 cells were incubated with fluorescent dyes to stain the cells, then seeded on a 24-well plate and cultured for 24 h. SP compound 6e was used at 25 μM concentration, providing a non-toxic effect on BHK-21 cells (Table S2, entry 5, Supplementary Materials). The Deep Red dye was used according to the manufacturer’s instructions.
The day after staining, the cells were collected and washed several times with PBS buffer in order to evaluate the stability of the staining. The fluorescent signal was analysed by flow cytometry (Figure 3). […] However, only (61 ± 3)% of Deep Red stained cells were positive, whereas SP compound 6e ensured 99.9% positive cells. Moreover, the signal intensity (fluorescence shift from unstained cells) of cells stained with compound 6e was remarkably higher than for the Deep Red dye. The calculated stain index for SP compound 6e was (92 ± 19) before cell washing and (77 ± 15) after cell washing. However, in the case of Deep Red, the calculated stain index was (2.27 ± 0.07) before cell washing and (2.21 ± 0.07) after cell washing. High intensity usually facilitates flow cytometry data acquisition by enhancing the signal-to-background ratio and enabling optimal compensation in complex multicolour fluorescence analysis. […]
When cells reached 90% confluency, they were stained with 25 μM compound 6e or 1 μM CellTracker™ Deep Red dye (Cat. No. C34565; Invitrogen) according to the manufacturer’s instructions. […] Stained cells were kept at 4 °C and analysed using a FACSAria BD Hardware flow cytometer with FACSDiva 6.1.3 software (BD Biosciences, San Jose, CA, USA). […] The data were analysed using FlowJo 10.3 software (FlowJo LLC, Ashland, OR, USA) and presented as the mean of three independent experiments. […]

CCCCCCCCCCCCCCCC[n+]1ccc(C=CC=Cc2cc3c4c(c2)CCCN4CCC3)cc1.[Br-] [Compound 6e, 1-hexadecyl-4-(4-(2,3,6,7-tetrahydro-1H,5H-pyrido[3,2,1-ij]quinolin-9-yl)buta-1,3-dien-1-yl)pyridin-1-ium bromide]
stain index after cell washing (washed 3 times with PBS): 77 ± 15
positive (stained) cells (25 μM 6e or 1 μM Deep Red): 99.9%
stain index before cell washing (25 μM 6e or 1 μM Deep Red): 92 ± 19
